In patent publication US20240010992A1, “COMPOSITIONS AND METHODS TO IMPROVE IPSC-EC FUNCTION” (Northwestem University, priority 2022, published 2024):
“Also recorded” adds a separate entry of the source. Like-named read-outs stand apart in the source and are kept apart here.

Key:
CD144 and CD31 = test: Immunostaining for CD144 and CD31 and morphology of iPSC-ECs; assay type: cell-based, human; settings: ACS1028 and Y6 iPSC-ECs
Method: Immunostaining was performed by fixing cells in 4% paraformaldehyde for 15 minutes at room temperature and then washing with PBS. Cells were then permeabilized with 70% ice cold ethanol on ice and blocked with 0.5% BSA in PBS for 15 minutes at room temperature. Cells were then incubated overnight at 4° C. with the primary antibody in antibody dilution buffer (0.05% BSA in PBS) at the following concentrations: Nanog (Life Technologies PA1-097, 1:100), SSEA4 (Life Technologies 414000, 1:400), Sox2 (Life Technologies PA1-16968, 1:100), VE-cadherin/CD144 (Sigma V1514, 1:200), PECAM1/CD31 (Abcam ab187377, 1:100). The isotype control antibodies used in this study were mouse IgG1 (Abcam ab172730) and rabbit serum. Cells were washed with PBS and incubated with conjugated secondary antibodies at room temperature in the dark (Life Technologies, 1:300).

Y6-derived ECs = test: Mitophagy inducing drug experiment, cell number by total Hoechst signal; settings: all concentrations, by passage 1
Method: (§4) The effect of increasing mitophagy in iPSC-ECs was evaluated.

ACS1028-derived ECs = test: as above; settings: all concentrations, by passage 1
Method: as §4

ACS1028-ECs [1] = test: Cell survival of purified iPSC-ECs by light microscopy cell counting / Trypan blue; assay type: cell-based; settings: for cell survival: serial passaging
Method: There were three biological replicates for each group in each experiment, unless otherwise specified. For MitoTracker quantification, total fluorescence signal for the area was measured in Fiji and divided by the number of nuclei present. This was done for 5 fields of view (technical replicates) and averaged to generate a data point for a given biological replicate. For the DAF-FM reduction measurements for NO production, a given experimental condition was plated into 3 wells of a 96 well plate. For TEM analysis, each biological sample was imaged in a minimum of 5 locations. Three representative images from each condition were utilized for quantifying autolysosomes per high power field (HPF) in each of two separate experiments. For light microscopy images, cells were manually counted from three distinct areas of a given experimental condition on two separate occasions. All data wereanalyzed with one-way ANOVA with a post-hoc Tukey test in IBM SPSS Statistics for Macintosh, version 27 (IBM Corp., Armonk, N.Y., USA). A p value of <0.05 was considered significant, where * represent comparisons between the specified groups.
(§1) Experiments were conducted to determine whether inducing autophagy in iPSC-ECs overcomes the premature senescence phenomenon. […] Due to the loss of proliferating cells in the control culture, the experiment was terminated at passage 3.
(§2) To assess whether the effect of Rg2 on proliferation is mediated through autophagy, ACS1028-ECs was administered with 200 μM Rg2 and SBI-0206965 to block ULK1 kinase at varying concentrations. Cell survival was assessed by counting the number of cells per high power field by light microscopy, which diminished over serial passages in the DMSO-treated vehicle-control condition.

ACS1028-ECs [2] = test: Cell proliferation assay (EdU labeling) of iPSC-ECs over serial passages; assay type: cell-based, human
Method: Proliferating cells were labeled with EdU using the Invitrogen Click-iT microplate assay kit (Invitrogen C10214), without the use of the Amplex Ultra red step. Cells were labeled for 24 hours with 10 μM EdU or DMSO as a vehicle control. Cells were fixed and prepared according to the manufacturer's instructions, minus the Amplex Ultra red labeling. Hoechst 33342 was added at 5 μg/mL (Invitrogen H1399), and labeled cells were imaged on a Zeiss inverted fluorescence microscope. Four tiled images at 10× magnification were collected per each well of 3 biological replicates per condition and stitched together as a single image per well for analysis. EdU-labeled and total nuclei were counted in Fiji.
as §1

Opal = test: Western blotting, Opal expression in iPSC-ECs; assay type: cell-based; settings: human iPSC-derived endothelial cells
Excerpt: (§3) Milk solution was removed, and membranes rinsed in TBST. […] ECL was applied for chemiluminescence. Imaging was done using Bio-Rad imager.

Parkin = test: Western blotting, Parkin expression in iPSC-ECs; assay type: cell-based, human; settings: particularly under bafilomycin treated conditions
Excerpt: as §3

[3] = test system: endothelial nitric oxide synthase; test: Western blotting, phosphorylation of endothelial nitric oxide synthase in iPSC-ECs; assay type: cell-based; settings: human iPSC-derived endothelial cells
Excerpt: as §3

SIRT1 = test: Western blotting, SIRT1 expression in iPSC-ECs; assay type: cell-based; settings: human iPSC-derived endothelial cells
Excerpt: as §3

Drp1 = test: Western blotting, phosphorylation of Drp1 in iPSC-ECs; assay type: cell-based; settings: human iPSC-derived endothelial cells
Excerpt: as §3

LC3-II = test: Western blotting of LC3-II (normalized to GAPDH) in ACS1028-EC lysate; assay type: cell-based, human; settings: ACS1028-ECs
Method: Western blotting was performed using a modified Novus Biological protocol (NB100-2220) with 10%, 12%, 14% or 4-20% gradient SDS-PAGE gels. Cells were collected and lysed with RIPA buffer plus PMSF protease inhibitor. Cell lysate was centrifuged at high speed for 10 minutes at 4° C., and the supernatant was transferred to a fresh tube. The total protein content was quantified with a Bradford assay, and a total of 20 ug of protein was mixed with Laemmli buffer (4% SDS, 5% 2-mercaptoethanol (BME), 20% glycerol, 0.004% bromophenol blue, 0.125 M Tris HCl, pH 6.8) and denatured for 10 minutes at 95° C. This was followed by wet transfer to PVDF immobilon membrane (Millipore IPFL00010) and blocked with Odyssey TBS blocking buffer (LiCor 927-50000). […] Bands were quantified and normalized by a ratio of LC3-II:GAPDH, rather than LC3-II:LC3-I as LC3-II is more sensitive in blotting and accurate observed alone.
as §2

PKM2 = test: Western blotting, phosphorylation of PKM2 in iPSC-ECs; assay type: cell-based, human; settings: particularly under bafilomycin treated conditions
Excerpt: as §3

PDH = test: Western blotting, PDH expression in iPSC-ECs; assay type: cell-based, human; settings: particularly under bafilomycin treated conditions
Excerpt: as §3

Method for cleaved caspase 3: Utilizing 8%, 10%, and 14% polyacrylamide gels, samples were run at 150V for 1 to 2 hours in SDS-Tris-Glycine buffer. Gels were then transferred to nitrocellulose membrane for two and half hours at 0.35 Amps in Tris-Glycine transfer buffer. After transfer nitrocellulose membranes were blocked in 10% milk/TBST solution for 1 hr. Milk solution was removed, and membranes rinsed in TBST. Blocked membranes were cut and placed in primary antibody solution (5% BSA/TBST) overnight. After incubation with primary antibody incubation membranes were washed with TBST for 5 mins 3X. Secondary antibody incubation (Rabbit 1:1000) in 5% BSA solution was applied for 2 hrs. After secondary antibody incubation membranes were washed with TBST for 15 mins 3X. ECL was applied for chemiluminescence. Imaging was done using Bio-Rad imager.

Antimycin A
CD144 and CD31 expression and typical morphology (mature endothelial cell phenotype) (CD144 and CD31): accelerated the loss of CD144 and CD31 as well as typical morphology | cell survival (total Hoechst signal) (Y6-derived ECs): decreased cell survival | cell loss / cell survival (total Hoechst signal) (ACS1028-derived ECs): high levels of cell loss; also recorded: decreased cell survival

NCCCCNCCCN [spermidine]
residual cells, Trypan blue (ACS1028-ECs [1]; purified ACS1028-ECs incubated overnight with Trypan blue): no residual cells | presence of cells by light microscopy (ACS1028-ECs [1]; purified ACS1028-ECs, versus control and DMSO-vehicle control): no cells visible

N#CC(C#N)=NNc1ccc(OC(F)(F)F)cc1 [FCCP]
CD144 and CD31 expression and typical morphology (mature endothelial cell phenotype) (CD144 and CD31): accelerated loss of mature endothelial cell phenotype | cell loss / cell survival (total Hoechst signal) (ACS1028-derived ECs): high levels of cell loss

Oc1ccc(C=Cc2cc(O)cc(O)c2)cc1 [resveratrol]
presence of cells by light microscopy (ACS1028-ECs [1]): no cells visible | residual cells, Trypan blue (ACS1028-ECs [1]): no residual cells | cell survival (ACS1028-ECs [1]; purified ACS1028-ECs): no cells surviving to passage 1

N=c1c2c(-c3ccccc3)c(-c3ccccc3)n(Cc3ccccc3)c2ncn1[C@H]1CC[C@H](O)CC1 [ML246]
presence of cells by light microscopy (ACS1028-ECs [1]): no cells visible | residual cells, Trypan blue (ACS1028-ECs [1]): no residual cells

CC[C@H]1/C=C/C=C/C[C@@H](C)[C@H](O)[C@@](C)(O)C(=O)[C@@H](C)[C@H](O)[C@@H](C)C(=O)[C@@H](C)[C@H](O)[C@@H](C)/C=C/C(=O)O[C@@H]2[C@H](C)[C@H](CC1)O[C@]1(CC[C@H](C)[C@H](C[C@@H](C)O)O1)[C@H]2C [oligomycin]
CD144 and CD31 expression and typical morphology (mature endothelial cell phenotype) (CD144 and CD31): accelerated the loss of CD144 and CD31 as well as typical morphology | cell survival (total Hoechst signal) (Y6-derived ECs): decreased cell survival | cell loss / cell survival (total Hoechst signal) (ACS1028-derived ECs): high levels of cell loss; also recorded: decreased cell survival

CC(C)=CCC[C@](C)(O)[C@H]1CC[C@]2(C)[C@@H]1[C@H](O)C[C@@H]1[C@@]3(C)CC[C@H](O)C(C)(C)[C@@H]3[C@@H](O[C@@H]3O[C@H](CO)[C@@H](O)[C@H](O)[C@H]3O[C@@H]3O[C@@H](C)[C@H](O)[C@@H](O)[C@H]3O)C[C@]12C [Rg2]
persistence of the proliferation benefit over serial passages (ACS1028-ECs [2]; serial passages, experiment terminated at passage 3): persisted through passage 3; also recorded: sustained through passage 3 | proliferation (EdU labeled cells) (ACS1028-ECs [2]; versus DMSO vehicle control and rapamycin, ML246, Antimycin A or oligomycin): increased rate of proliferation; also recorded: statistically significant improvement in proliferation | expression of Opal (mitochondrial fusion) (Opal): increased | Parkin (mitophagy marker) expression (Parkin): increased Parkin expression; also recorded: slightly increases | phosphorylation (activity) of endothelial nitric oxide synthase [3]: increased phosphorylation | SIRT1 expression (SIRT1): increased expression of longevity protein SIRT1 in a dose-dependent manner | phosphorylation of Drp1 (mitochondrial fission) (Drp1): increased phosphorylation of Drp1 | apoptosis (cleaved caspase 3) (cleaved caspase 3): no increase in cleaved caspase 3 | LC3-II level by Western blotting (LC3-II; passage 3, Rg2 treated vs DMSO): increase in LC3-II level | cell survival (ACS1028-ECs [1]; purified ACS1028-ECs): improved cell survival | phosphorylation of PKM2 (PKM2): increased phosphorylation of PKM2 | expression of PDH (PDH): increased

CNC(=O)c1ccccc1Oc1nc(Nc2cc(OC)c(OC)c(OC)c2)ncc1Br [SBI-0206965]
LC3-II level by Western blotting, co-treatment with Rg2 (LC3-II; passage 3, SBI-0206965 at any concentration added to Rg2): reduced | presence of cells by light microscopy (ACS1028-ECs [1]): no cells visible | residual cells, Trypan blue (ACS1028-ECs [1]): no residual cells | cell survival (cells per high power field), co-treatment with Rg2 (ACS1028-ECs [1]; 10 μM (highest concentration) in the presence of 200 μM Rg2, passages 2 and 3): almost no surviving cells | cell survival (ACS1028-ECs [1]; purified ACS1028-ECs): no cells surviving to passage 1 | cell survival (cells per high power field), co-treatment with Rg2 (ACS1028-ECs [1]; varying concentrations of SBI-0206965 in the presence of 200 μM Rg2, survival to passage 3): fewer cells surviving when treated with higher concentrations; also recorded: statistically significant reduction in cell survival in a dose-dependent manner
